Read-outs that look alike come from different tables or passages of the source.

The test system of data set [1] is A549.ORF9b cells. The format is cell-based.
In a further data set the test system is THP-1.ORF9b cells. The data set is classed as cell-based.
Data set [2] concerns A549.ORF9b cells. Briefly: Fluorescence microscopy, co-localization of ORF9b and mitochondria. The format is cell-based.
The subject of the next data set is THP-1. ORF9b cells. The format is cell-based. Particulars: 10 ng/mL interferon-β1 4 h, inhibitor 1 µM 1 h.
In the next data set the test system is A549.ORF9b. The data set is classed as cell-based. Particulars: A549.ORF9b cells; 10 ng/mL interferon-β1 4 h, inhibitor 1 µM 1 h.
Data set [3] deals with T1, Recombinant SARS-CoV-2 GST-ORF9b protein (Severe acute respiratory syndrome coronavirus 2, UniProt P0DTD2).
T1 construct: purchased BPS Bioscience
As to the kind of experiment: Surface plasmon resonance, ORF9b-ORF9b homotypic interaction. The following applies: mobile-phase GST-ORF9b pre-incubated with 5 µM compound. The data set is classed as binding. In general terms: Surface plasmon resonance follows binding to a sensor surface in real time, without labels.

The next data set deals with A549wt cells. The format is cell-based. The following applies: both without and with LPS+ATP, MCC950 for the last 3 h.
Setting [4] is: A549 lung epithelial cells, low micromolar concentrations (Fig. 9A).
Where [5] appears, read: THP-1 monocyte-macrophage cells, low micromolar concentrations (Fig. 9B).

T1 sequence (P0DTD2 whole entry): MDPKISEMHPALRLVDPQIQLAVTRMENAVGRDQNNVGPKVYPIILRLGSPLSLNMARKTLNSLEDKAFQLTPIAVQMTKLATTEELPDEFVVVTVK

The term logP denotes a log measure of how a compound divides between an organic and an aqueous phase. Low values mean lower lipophilicity, high ones higher lipophilicity. For `Cc1ccc(N)c(NC(=O)Cc2ccc(F)cc2)c1` [Compound 3, N-(2-Amino-5-methylphenyl)-2-(4-fluorophenyl)acetamide], the “inhibition of ORF9b-induced caspase-1 activation” value in the data set with A549.ORF9b cells [1] (A549.ORF9b cells) and in the data set on THP-1.ORF9b cells (THP-1.ORF9b cells) was “much lower or no” each time. In addition, the “mitochondrial eviction of ORF9b” value in the data set on A549.ORF9b cells [2] (low micromolar concentrations) was “did not cause mitochondrial eviction”. The compound further displayed a logP in the data set “physchem” of 2.63.

As to `Nc1ccc(F)c(NC(=O)Cc2ccc(Cl)cc2)c1` [Compound 5, N-(5-Amino-2-fluorophenyl)-2-(4-chlorophenyl)acetamide], the “inhibition of ORF9b-induced caspase-1 activation” value in the data set with A549.ORF9b cells [1] (A549.ORF9b cells) and with THP-1.ORF9b cells (THP-1.ORF9b cells) was “inhibited” each time. Besides, the “inhibition of the activation of caspase-1 induced by ORF9b” value (“inhibition of the activation … by ORF9b” below) with A549.ORF9b cells [1] (setting [4]) and with THP-1.ORF9b cells (setting [5]) was “inhibit” in each case. In “physchem”, the logP worked out at 2.7.

For `Nc1ccc(F)c(NC(=O)c2cccc3ccccc23)c1` [Compound 2, N-(5-Amino-2-fluorophenyl)-1-naphthamide], the “inhibition of ORF9b-induced caspase-1 activation” value in the data set on A549.ORF9b cells [1] (A549.ORF9b cells) and with THP-1.ORF9b cells (THP-1.ORF9b cells) was “inhibited” in each case. Moreover, the “inhibition of the activation … by ORF9b” value with A549.ORF9b cells [1] (setting [4]) and in the data set on THP-1.ORF9b cells (setting [5]) was “inhibit” each time. For the same compound, the “restoration of IFN-β induced expression of OAS3 and ISG15 mitigated by ORF9b” value (“restoration” for short) in the data set on THP-1. ORF9b cells and in the data set with A549.ORF9b was “largely restored” each time. The “mitochondrial eviction of ORF9b” value in the data set on A549.ORF9b cells [2] (5 µM, 4 h (Fig. 11)) was “induce mitochondrial eviction”; in the data set on A549.ORF9b cells [2] (low micromolar concentrations), “capable of causing mitochondrial eviction”. The logP in the data set “physchem” was determined as 3.19.

Consider `COc1ccc(CC(=O)Nc2cc(N)ccc2F)cc1` [Compound 4, N-(5-Amino-2-fluorophenyl)-2-(4-methoxyphenyl)acetamide], for which the “inhibition of ORF9b-induced caspase-1 activation” value with A549.ORF9b cells [1] (A549.ORF9b cells) and in the data set with THP-1.ORF9b cells (THP-1.ORF9b cells) was “inhibited” in each case. For the same compound, the “inhibition of the activation … by ORF9b” value in the data set on A549.ORF9b cells [1] (setting [4]) and with THP-1.ORF9b cells (setting [5]) was “inhibit” each time. This compound yielded a logP in the data set “physchem” of 2.01.

For the compound `O=C(Cc1ccccc1)Nc1cc([N+](=O)[O-])ccc1F` [Compound 9, N-(2-Fluoro-5-nitrophenyl)-2-phenylacetamide], in the data set “physchem”, the logP came to 2.85.

As to `COc1ccc(CC(=O)Nc2cc([N+](=O)[O-])ccc2F)cc1` [Compound 7, N-(2-Fluoro-5-nitrophenyl)-2-(4-methoxyphenyl)acetamide], the “inhibition of ORF9b-induced caspase-1 activation” value in the data set with A549.ORF9b cells [1] (A549.ORF9b cells) and in the data set on THP-1.ORF9b cells (THP-1.ORF9b cells) was “inhibited” each time. Besides, the “inhibition of the activation … by ORF9b” value with A549.ORF9b cells [1] (setting [4]) and in the data set with THP-1.ORF9b cells (setting [5]) was “inhibit” each time. This compound came in with a logP in the data set “physchem” of 2.98.

`Cc1ccc([N+](=O)[O-])c(NC(=O)Cc2ccc(F)cc2)c1` [Compound 8, N-(2-Nitro-5-methylphenyl)-2-(4-fluorophenyl)acetamide]: the “inhibition of ORF9b-induced caspase-1 activation” value in the data set on A549.ORF9b cells [1] (A549.ORF9b cells) and in the data set on THP-1.ORF9b cells (THP-1.ORF9b cells) was “much lower or no” each time. Besides, the “mitochondrial eviction of ORF9b” value in the data set on A549.ORF9b cells [2] (low micromolar concentrations) is “did not cause mitochondrial eviction”. In the data set “physchem”, this compound registered a logP of 3.27.

For `Nc1ccc(F)c(NC(=O)Cc2ccccc2)c1` [Compound 1], the “inhibition of ORF9b-induced caspase-1 activation” value in the data set with A549.ORF9b cells [1] (A549.ORF9b cells) and in the data set with THP-1.ORF9b cells (THP-1.ORF9b cells) was “significantly inhibited” each time. Besides, the “inhibition of the activation … by ORF9b” value with A549.ORF9b cells [1] (A549.ORF9b cells, 5 µM, 3 h (Fig. 6)) was “inhibits”; in the data set on THP-1.ORF9b cells (THP-1.ORF9b cells, 5 µM, 3 h (Fig. 7)), “inhibits”. Further, the “restoration” value with THP-1. ORF9b cells and in the data set with A549.ORF9b was “largely restored” in each case. Besides, the “mitochondrial eviction of ORF9b” value in the data set on A549.ORF9b cells [2] (2.5 µM, 4 h (Fig. 8)) was “causes mitochondrial eviction”; with A549.ORF9b cells [2] (low micromolar concentrations), “rapid and remarkable partial eviction”. Besides, the “Binding of GST-ORF9b to immobilized GST-ORF9b” value in data set [3] is on record as “significantly inhibited”. The same compound gave a logP in “physchem” of 2.14.

On to `O=C(Cc1ccc(Cl)cc1)Nc1cc([N+](=O)[O-])ccc1F` [Compound 6, 2-(4-Chlorophenyl)-N-(2-fluoro-5-nitrophenyl)acetamide], for which the “inhibition of ORF9b-induced caspase-1 activation” value in the data set on A549.ORF9b cells [1] (A549.ORF9b cells) and in the data set with THP-1.ORF9b cells (THP-1.ORF9b cells) was “inhibited” throughout. Also, the “inhibition of the activation … by ORF9b” value with A549.ORF9b cells [1] (setting [4]) and with THP-1.ORF9b cells (setting [5]) was “inhibit” in each case. Besides, the “restoration” value in the data set with THP-1. ORF9b cells and in the data set with A549.ORF9b was “largely restored” each time. Further, the “mitochondrial eviction of ORF9b” value in the data set on A549.ORF9b cells [2] (5 µM, 4 h (Fig. 11)) is “induce mitochondrial eviction”; in the data set with A549.ORF9b cells [2] (low micromolar concentrations) it was “capable of causing mitochondrial eviction”. The same compound yielded a logP in the data set “physchem” of 3.47.

Consider `CC(C)(O)c1coc(S(=O)(=O)NC(=O)Nc2c3c(cc4c2CCC4)CCC3)c1` [MCC950, reference compound], for which the “induction of caspase-1 activation by SARS-CoV-2 accessory proteins” value in the data set with A549wt cells was “abolished”.

Values taken from patent publication EP4603477A1, “INHIBITORS OF THE CORONAVIRUS ACCESSORY PROTEIN ORF9B” (Consejo Superior De Investigaciones Científicas, priority 2024, dated 2025).
